# Data published in ChEMBL document CHEMBL4837202, “Design, synthesis of novel celastrol derivatives and study on their antitumor growth through HIF-1α pathway” (Eur J Med Chem, 2021).
# Active and inactive are the calls of the source. The calls are words filed in the database; no cut-off is given here.
# Key:
# Hep 3B2 [1] = assay: Cytotoxicity against human Hep3B cells assessed as reduction in cell viability incubated for 24 hrs under normaxic condition by MTT assay; format: cell-based
# [2] = Solubility of the compound in water measured by UV-Visible spectral analysis; format: physicochemical
# HCT-116 [3] = assay: Antitumour activity against human HCT-116 cells xenografted in nude BALB/c mouse assessed as tumour growth inhibition at 10 mg/kg, ip administered for 20 days relative to control; format: functional; parameters: scale not given: the % may be the effect or the level left; conditions: time 20 day
# [4] = Toxicity in BALB/c mouse xenografted […] HCT-116 cells assessed as effect on body weight at 10 mg/kg, ip administered every day measured after 21 days; format: organism-based; conditions: in vivo, 504 h, time 21 day
# HCT-116 [5] = assay: Antitumour activity against human HCT-116 cells xenografted BALB/c mouse with assessed as morphological changes in tumour tissue at 10 mg/kg, ip administered every day measured after 21 days H and E staining based optical microscopic method; format: functional, organism-based; conditions: time 21.0 day
# Hep 3B2 [6] = assay: Inhibition of hypoxia-induced HIF1alpha protein expression in human Hep3B cells incubated for 12 hrs in presence of 1% O2 under hypoxic condition by Western blot analysis; format: functional, cell-based; conditions: dose 1-10 µM
# Hep 3B2 [7] = assay: Antiproliferative activity against human Hep3B cells assessed as reduction in colony formation incubated for 7 days by crystal violet staining based assay; format: functional, cell-based; conditions: dose 1-10 µM, time 7.0 day
# Hep 3B2 [8] = assay: Inhibition of cell migration in human Hep3B cells at incubated for 24 hrs by scratch wound healing assay; format: functional, cell-based; conditions: dose 1-10 µM
# Hep 3B2 [9] = assay: Inhibition of cell migration in human Hep3B cells at incubated for 48 hrs by scratch wound healing assay; format: functional, cell-based; conditions: dose 1-10 µM
# Hep 3B2 [10] = assay: Induction of apoptosis in human Hep3B cells assessed as early apoptotic cells at 1 uM incubated for 24 hrs by PI and annexin V-FITC staining based flow cytometry (reference value: 1.2%); format: functional
# Hep 3B2 [11] = assay: Induction of apoptosis in human Hep3B cells assessed as late apoptotic cells at 1 uM incubated for 24 hrs by PI and annexin V-FITC staining based flow cytometry (reference value: 1.6%); format: functional
# Hep 3B2 [12] = assay: Induction of apoptosis in human Hep3B cells assessed as necrotic cells at 1 uM incubated for 24 hrs by PI and annexin V-FITC staining based flow cytometry (reference value: 0.1%); format: functional
# Hep 3B2 [13] = assay: Induction of apoptosis in human Hep3B cells assessed as viable cells at 1 uM incubated for 24 hrs by PI and annexin V-FITC staining based flow cytometry (reference value: 97.0%); format: functional; conditions: read-out: Activity
# Hep 3B2 [14] = assay: Induction of apoptosis in human Hep3B cells assessed as early apoptotic cells at 3 uM incubated for 24 hrs by PI and annexin V-FITC staining based flow cytometry (reference value: 1.2%); format: functional
# Hep 3B2 [15] = assay: Induction of apoptosis in human Hep3B cells assessed as late apoptotic cells at 3 uM incubated for 24 hrs by PI and annexin V-FITC staining based flow cytometry (reference value: 1.6%); format: functional
# Hep 3B2 [16] = assay: Induction of apoptosis in human Hep3B cells assessed as necrotic cells at 3 uM incubated for 24 hrs by PI and annexin V-FITC staining based flow cytometry (reference value: 0.1%); format: functional
# Hep 3B2 [17] = assay: Induction of apoptosis in human Hep3B cells assessed as viable cells at 3 uM incubated for 24 hrs by PI and annexin V-FITC staining based flow cytometry (reference value: 97.0%); format: functional; conditions: read-out: Activity
# Hep 3B2 [18] = assay: Induction of apoptosis in human Hep3B cells assessed as early apoptotic cells at 10 uM incubated for 24 hrs by PI and annexin V-FITC staining based flow cytometry (reference value: 1.2%); format: functional
# Hep 3B2 [19] = assay: Induction of apoptosis in human Hep3B cells assessed as late apoptotic cells at 10 uM incubated for 24 hrs by PI and annexin V-FITC staining based flow cytometry (reference value: 1.6%); format: functional
# Hep 3B2 [20] = assay: Induction of apoptosis in human Hep3B cells assessed as necrotic cells at 10 uM incubated for 24 hrs by PI and annexin V-FITC staining based flow cytometry (reference value: 0.1%); format: functional
# Hep 3B2 [21] = assay: Induction of apoptosis in human Hep3B cells assessed as viable cells at 10 uM incubated for 24 hrs by PI and annexin V-FITC staining based flow cytometry (reference value: 97.0%); format: functional; conditions: read-out: Activity
# HCT-116 [22] = assay: Antitumour activity against human HCT-116 cells xenografted in nude BALB/c mouse assessed as tumour growth inhibition at 5 mg/kg, ip administered for 20 days relative to control; format: functional; parameters: scale not given: the % may be the effect or the level left; conditions: time 20 day
# [23] = Toxicity in BALB/c mouse xenografted […] HCT-116 cells assessed as effect on body weight at 5 mg/kg, ip administered every day measured after 21 days; format: organism-based; conditions: in vivo, 504 h, time 21 day
# HCT-116 [24] = assay: Antitumour activity against human HCT-116 cells xenografted BALB/c mouse with assessed as morphological changes in tumour tissue at 5 mg/kg, ip administered every day measured after 21 days H and E staining based optical microscopic method; format: functional, organism-based; conditions: time 21.0 day
smiles,measurement,setting,value
CC1=C(O)C(=O)C=C2C1=CC=C1[C@@]2(C)CC[C@@]2(C)[C@@H]3C[C@](C)(C(=O)OCC(=O)Nc4ccc(F)nc4)CC[C@]3(C)CC[C@]12C,IC50,Hep 3B2 [1],4210 nM
CC1=C(O)C(=O)C=C2C1=CC=C1[C@@]2(C)CC[C@@]2(C)[C@@H]3C[C@](C)(C(=O)OCC(=O)NCc4cn(-c5ccc(Cl)c(Cl)c5)nn4)CC[C@]3(C)CC[C@]12C,IC50,Hep 3B2 [1],2450 nM
CC1=C(O)C(=O)C=C2C1=CC=C1[C@@]2(C)CC[C@@]2(C)[C@@H]3C[C@](C)(C(=O)OCC(=O)NCc4cn(-c5ccc(C)cc5)nn4)CC[C@]3(C)CC[C@]12C,IC50,Hep 3B2 [1],2720 nM
CC1=C(O)C(=O)C=C2C1=CC=C1[C@@]2(C)CC[C@@]2(C)[C@@H]3C[C@](C)(C(=O)OCCOc4cc(=O)oc5ccccc45)CC[C@]3(C)CC[C@]12C,IC50,Hep 3B2 [1],134000 nM
CCOP(=O)(OCC)C(NC(=O)COC(=O)[C@]1(C)CC[C@]2(C)CC[C@]3(C)C4=CC=C5C(=CC(=O)C(O)=C5C)[C@]4(C)CC[C@@]3(C)[C@@H]2C1)c1ccc(C)cc1 (some centres not stated),IC50,Hep 3B2 [1],4550 nM
CC1=C(O)C(=O)C=C2C1=CC=C1[C@@]2(C)CC[C@@]2(C)[C@@H]3C[C@](C)(C(=O)OCC(=O)NCc4cn(-c5ccc(Cl)cc5)nn4)CC[C@]3(C)CC[C@]12C,IC50,Hep 3B2 [1],21900 nM
CC1=C(O)C(=O)C=C2C1=CC=C1[C@@]2(C)CC[C@@]2(C)[C@@H]3C[C@](C)(C(=O)OCCOc4ccc5cccnc5c4)CC[C@]3(C)CC[C@]12C,IC50,Hep 3B2 [1],5270 nM
CC1=C(O)C(=O)C=C2C1=CC=C1[C@@]2(C)CC[C@@]2(C)[C@@H]3C[C@](C)(C(=O)OCCOc4cc(C)oc(=O)c4)CC[C@]3(C)CC[C@]12C,IC50,Hep 3B2 [1],1160 nM
CCOP(=O)(OCC)C(NC(=O)COC(=O)[C@]1(C)CC[C@]2(C)CC[C@]3(C)C4=CC=C5C(=CC(=O)C(O)=C5C)[C@]4(C)CC[C@@]3(C)[C@@H]2C1)c1ccccc1 (some centres not stated),IC50,Hep 3B2 [1],1170 nM
COc1ccc(-n2cc(CNC(=O)COC(=O)[C@]3(C)CC[C@]4(C)CC[C@]5(C)C6=CC=C7C(=CC(=O)C(O)=C7C)[C@]6(C)CC[C@@]5(C)[C@@H]4C3)nn2)cc1,IC50,Hep 3B2 [1],9110 nM
CC1=C(O)C(=O)C=C2C1=CC=C1[C@@]2(C)CC[C@@]2(C)[C@@H]3C[C@](C)(C(=O)OCC(=O)Nc4ccc(F)cn4)CC[C@]3(C)CC[C@]12C,IC50,Hep 3B2 [1],1260 nM
CC1=C(O)C(=O)C=C2C1=CC=C1[C@@]2(C)CC[C@@]2(C)[C@@H]3C[C@](C)(C(=O)O)CC[C@]3(C)CC[C@]12C [CELASTROL],solubility,[2],38.2 µg/mL
same,IC50,Hep 3B2 [1],760 nM
CC1=C(O)C(=O)C=C2C1=CC=C1[C@@]2(C)CC[C@@]2(C)[C@@H]3C[C@](C)(C(=O)OCC(=O)Nc4ccc5ncccc5c4)CC[C@]3(C)CC[C@]12C,IC50,Hep 3B2 [1],2910 nM
CCOP(=O)(OCC)C(NC(=O)COC(=O)[C@]1(C)CC[C@]2(C)CC[C@]3(C)C4=CC=C5C(=CC(=O)C(O)=C5C)[C@]4(C)CC[C@@]3(C)[C@@H]2C1)c1ccc(F)cc1 (some centres not stated),IC50,Hep 3B2 [1],2330 nM
CC1=C(O)C(=O)C=C2C1=CC=C1[C@@]2(C)CC[C@@]2(C)[C@@H]3C[C@](C)(C(=O)OCC(=O)NCc4cn(-c5ccccc5)nn4)CC[C@]3(C)CC[C@]12C,IC50,Hep 3B2 [1],1160 nM
CC1=C(O)C(=O)C=C2C1=CC=C1[C@@]2(C)CC[C@@]2(C)[C@@H]3C[C@](C)(C(=O)OCC(=O)Nc4cccc5ncccc45)CC[C@]3(C)CC[C@]12C,IC50,Hep 3B2 [1],1110 nM
CC1=C(O)C(=O)C=C2C1=CC=C1[C@@]2(C)CC[C@@]2(C)[C@@H]3C[C@](C)(C(=O)OCCOc4cccc5ncccc45)CC[C@]3(C)CC[C@]12C,IC50,Hep 3B2 [1],14400 nM
O=c1[nH]cc(F)c(=O)[nH]1 [FLUOROURACIL],Activity,HCT-116 [3],59.58%
same,Activity,[4],Non-Toxic
same,Activity,HCT-116 [5],Active
CC1=C(O)C(=O)C=C2C1=CC=C1[C@@]2(C)CC[C@@]2(C)[C@@H]3C[C@](C)(C(=O)OCCOc4ccc5ccc(=O)oc5c4)CC[C@]3(C)CC[C@]12C,IC50,Hep 3B2 [1],2450 nM
CC1=C(O)C(=O)C=C2C1=CC=C1[C@@]2(C)CC[C@@]2(C)[C@@H]3C[C@](C)(C(=O)OCCOc4cnc5ccccc5c4)CC[C@]3(C)CC[C@]12C,solubility,[2],28.1 µg/mL
same,IC50,Hep 3B2 [1],16800 nM
same,Activity,Hep 3B2 [6],Dose-Dependent Effect
same,Activity,Hep 3B2 [7],Dose-Dependent Effect
same,inhibition,Hep 3B2 [8],Dose-Dependent Effect
same,inhibition,Hep 3B2 [9],Dose-Dependent Effect
same,Activity,Hep 3B2 [10],1.9%
same,Activity,Hep 3B2 [11],1.4%
same,Activity,Hep 3B2 [12],0.2%
same,viability at 1 µM,Hep 3B2 [13],96.6%
same,Activity,Hep 3B2 [14],1.9%
same,Activity,Hep 3B2 [15],2%
same,Activity,Hep 3B2 [16],0%
same,viability at 3 µM,Hep 3B2 [17],96.1%
same,Activity,Hep 3B2 [18],6.2%
same,Activity,Hep 3B2 [19],5.7%
same,Activity,Hep 3B2 [20],0.2%
same,viability at 10 µM,Hep 3B2 [21],87.9%
same,Activity,HCT-116 [22],60.38%
same,Activity,HCT-116 [3],74.3%
same,Activity,[23],Non-Toxic
same,Activity,[4],Non-Toxic
same,Activity,HCT-116 [24],Active
same,Activity,HCT-116 [5],Active
CC1=C(O)C(=O)C=C2C1=CC=C1[C@@]2(C)CC[C@@]2(C)[C@@H]3C[C@](C)(C(=O)OCC(=O)Nc4ccnc5ccccc45)CC[C@]3(C)CC[C@]12C,IC50,Hep 3B2 [1],4000 nM
CCOP(=O)(OCC)C(NC(=O)COC(=O)[C@]1(C)CC[C@]2(C)CC[C@]3(C)C4=CC=C5C(=CC(=O)C(O)=C5C)[C@]4(C)CC[C@@]3(C)[C@@H]2C1)c1ccc(OC)cc1 (some centres not stated),IC50,Hep 3B2 [1],1480 nM
CC1=C(O)C(=O)C=C2C1=CC=C1[C@@]2(C)CC[C@@]2(C)[C@@H]3C[C@](C)(C(=O)OCC(=O)Nc4cccc5cccnc45)CC[C@]3(C)CC[C@]12C,IC50,Hep 3B2 [1],1690 nM
CC1=C(O)C(=O)C=C2C1=CC=C1[C@@]2(C)CC[C@@]2(C)[C@@H]3C[C@](C)(C(=O)OCC(=O)Nc4cnc5ccccc5c4)CC[C@]3(C)CC[C@]12C,IC50,Hep 3B2 [1],1040 nM
CC1=C(O)C(=O)C=C2C1=CC=C1[C@@]2(C)CC[C@@]2(C)[C@@H]3C[C@](C)(C(=O)OCC(=O)Nc4ccncc4)CC[C@]3(C)CC[C@]12C,IC50,Hep 3B2 [1],234000 nM
CC1=C(O)C(=O)C=C2C1=CC=C1[C@@]2(C)CC[C@@]2(C)[C@@H]3C[C@](C)(C(=O)OCC(=O)Nc4cc(C)on4)CC[C@]3(C)CC[C@]12C,IC50,Hep 3B2 [1],3070 nM
